These results are taken from US5332739A, “Pyrimidinedione derivatives and antiarrhythmic agents containing same” (Mitsui Toatsu Chemicals, Incorporated, priority 1990, dated 1994).

Series [1] can be described thus: Toxicity Test 1 (oral, mortality 24 hours after administration). The following applies: mouse, in vivo, 300 mg/kg (P.O), 2 to 4 mice per group, read-out: Mortality Rate (%). On the procedure:
Each of the compounds prepared in the above-mentioned examples shown in Table B was administered into a mouse (ddy strain, male). In each case, the administration was effected by oral administration in a dose of 300 mg/kg.
A mortality rate (number of specimens: one group=2 to 4 mice) of the mice 24 hours after the administration was calculated, and the results are set forth in Table B.

The test system of series [2] is Purkinje fiber of the right ventricular free wall. In words: Influence on Myocardial Action Potential Duration Time (APD75). The format is cell-based, hybrid adult dog. The following applies: Canis lupus familiaris, 20 min, 20 minutes' incubation, 1 Hz, 37° C.; for percent prolongation of action potential duration (APD75) at 1 µg/mL: Dose 1.0 (μg, ml); for percent prolongation of action potential duration (APD75) at 3 µg/mL: Dose 3.0 (μg, ml); for percent prolongation of action potential duration (APD75) at 10 µg/mL: Dose 10.0 (μg, ml). On the procedure: To a hybrid adult dog, 30 mg/kg of pentobarbital was administered through a vein, and after being anesthetized, the heart was removed. Afterward, the right ventricular free wall of the heart was cut and taken out in a Tyrode solution.
The taken right ventricular free wall was fixed in an incubator at 37° C., and a nutritional solution (20 ml of the Tyrode solution) was refluxed.
In this isolated condition, myocardial action potential duration times (APD75) were measured before and after the administration of the respective compounds prepared in the above examples in Table A and d-sotalol as a control medicine, and APD75 (%) was calculated from the measured results in accordance with the formula: […]
A: APD75 before administration
B: APD75 after administration
Here, APD75 was measured as follows: A field stimulation of 1 Hz was given to the right ventricular free wall, and any variation of an action potential was depicted on an oscilloscope via a glass microelectrode (10 to 20 M.OMEGA.) thrust into a Purkinje fiber of the free wall and via an amplifier. Afterward, a waveform on the oscilloscope was analyzed by the use of a computer, and the time of from a point of the action potential generation to a point of 75% repolarization was measured. This measured time was regarded as the myocardial action potential duration time (APD75).
The compounds and d-sotalol shown in Table A were separately added to the refluxing nutritional solution (20 ml), and after 20 minutes' incubation, APD75 after the administration was calculated from the variation of the myocardial action potential duration time.
Incidentally, this test was carried out in accordance with a Sato et al's method [H. Sato, K. Hashimoto, Arzneimeittel Forschung, 34 (1), 3a, 376-380 (1984)].

Series [3] deals with ventricular muscle (right ventricle). In words: Influence on Ventricular Muscle Refractory Period (ERP). The format is in vivo, mongrel adult dog. The following applies: Canis lupus familiaris, iv, anesthetized dog, read-out: ERP (%; extensibility of refractory period); for change in vivo at 0.1 mg/kg: Dose 0.1 mg/kg i.v.; for change in vivo at 0.3 mg/kg: Dose 0.3 mg/kg i.v.; for change in vivo at 1 mg/kg: Dose 1.0 mg/kg i.v.; for change in vivo at 3 mg/kg: Dose 3.0 mg/kg i.v. On the procedure:
Refractory periods were measured in the following manner before and after each of the compounds and d-sotalol shown an Table A was separately administered to a vein or a duodenum, and ERP (%; extensibility of refractory period) was calculated from the measured values in accordance with the following formula: […]
W: Refractory period after administration
Y: Refractory period before administration
To a mongrel adult dog, 30 mg/kg of pentobarbital was administered intravenously, and after being anesthetized, a pair of silver-silver chloride electrodes separated by 3 mm was sewn on an opened right ventricule, and electrical stimulation was given at an interval of 400 msec at a duration time of 4 msec under a current twice as much as the threshold. Afterward, a small amount of alcohol was injected into a sinus artery in order to extinguish a pacemaker activity, and the ventricular refractory period (ERP) was measured under ventricule pacing.
That is, 1 train comprised 10 stimulations, and an interval between two of the trains was usually 400 msec. At the time of the refractory period measurement, however, the above interval was shortened every 10 smec, and the interval between the trains at the time when reaction to the first stimulation of the train disappeared was regarded as the refractory period.
In this case, the electrical stimulation was fed in accordance with a program by a heart stimulation device (Diamedical Co., Ltd.; DHM-226-3).

Where a name gives a salt, the structure may show the parent alone.

Consider `Cn1c(N2CCN(CCCOc3ccc(C(F)(F)F)cc3)CC2)cc(=O)n(C)c1=O` [Compound 2], for which, in series [1], the mortality at 24 h came to 50%.
For the molecule `CC(=O)c1ccc(OCCCN2CCN(c3cc(=O)n(C)c(=O)n3C)CC2)cc1` [Compound 4], in series [1], the mortality at 24 h came to 0%. Besides, in series [2], the percent prolongation of action potential duration (APD75) at 1 µg/mL turned out to be 5% and the percent prolongation of action potential duration (APD75) at 3 µg/mL was 8%.
As to `Cn1c(N2CCN(CCCOc3ccc(-n4cncn4)cc3)CC2)cc(=O)n(C)c1=O` [Compound 6], the mortality at 24 h in series [1] worked out at 0%. For the same molecule, in series [3], the change in vivo at 0.1 mg/kg is 0%, the change in vivo at 0.3 mg/kg worked out at 0%, the change in vivo at 1 mg/kg is 0% and the change in vivo at 3 mg/kg is 6.2%. Also, in series [2], the percent prolongation of action potential duration (APD75) at 1 µg/mL was found to be 5%, the percent prolongation of action potential duration (APD75) at 3 µg/mL amounted to 10% and the percent prolongation of action potential duration (APD75) at 10 µg/mL was determined as 25%.
Take `Cn1c(N2CCN(CCCOc3ccc(S(C)(=O)=O)cc3)CC2)cc(=O)n(C)c1=O` [Compound 7]: in series [1], the mortality at 24 h stood at 0%.
For `Cn1c(N2CCN(CCOc3ccccc3)CC2)cc(=O)n(C)c1=O` [Compound 65, 1,3-dimethyl-6-[4-(2-phenoxyethyl)piperazin-1-yl]-2,4(1H,3H)-pyrimidinedione.hydrochloride], in series [3], the change in vivo at 0.1 mg/kg came to 0%, the change in vivo at 0.3 mg/kg came to 0%, the change in vivo at 1 mg/kg is 0% and the change in vivo at 3 mg/kg is 0%. In series [2], this molecule displayed a percent prolongation of action potential duration (APD75) at 3 µg/mL of 14% and a percent prolongation of action potential duration (APD75) at 10 µg/mL of 17%.
For `Cn1c(N2CCN(CCCCOc3ccc(Cl)cc3)CC2)cc(=O)n(C)c1=O` [Compound 82, 6-[4-(4-[4-chlorophenoxy]butyl)piperazin-1-yl]-1,3-dimethyl-2,4(1H,3H)-pyrimidinedione.hydrochloride], the mortality at 24 h in series [1] came to 0%. Further, in series [2], the percent prolongation of action potential duration (APD75) at 1 µg/mL worked out at 16%, the percent prolongation of action potential duration (APD75) at 3 µg/mL came to 28% and the percent prolongation of action potential duration (APD75) at 10 µg/mL came out at 43%.
Regarding `CC(=O)c1ccccc1CCN1CCN(c2cc(=O)n(C)c(=O)n2C)CC1` [Compound 85, 1,3-dimethyl-6-[4-(2-[2-acetylphenyl]ethyl)piperazin-1-yl]-2,4(1H,3H)-pyrimidinedione.oxalate], the mortality at 24 h in series [1] was 0%.
For `Cn1c(N2CCN(CCc3ccccc3)CC2)cc(=O)n(C)c1=O` [Compound 88, 1,3-dimethyl-6-[4-(2-phenylethyl)-piperazin-1-yl]-2,4(1H,3H)-pyrimidinedione.hydrochloride], in series [3], the change in vivo at 0.1 mg/kg was 2%, the change in vivo at 0.3 mg/kg stood at 6% and the change in vivo at 1 mg/kg was found to be 11.7%. Further, in series [2], the percent prolongation of action potential duration (APD75) at 3 µg/mL turned out to be 26% and the percent prolongation of action potential duration (APD75) at 10 µg/mL was found to be 49%.
Regarding `Cn1c(N2CCN(CCCc3ccccc3)CC2)cc(=O)n(C)c1=O` [Compound 89, 1,3-dimethyl-6-[4-(3-phenylpropyl)piperazin-1-yl]-2,4(1H,3H)-pyrimidinedione.hydrochloride], in series [3], the change in vivo at 0.1 mg/kg came to 0%, the change in vivo at 0.3 mg/kg is 5.7%, the change in vivo at 1 mg/kg came out at 9.7% and the change in vivo at 3 mg/kg worked out at 14%. For the same molecule, in series [2], the percent prolongation of action potential duration (APD75) at 1 µg/mL came out at 15%, the percent prolongation of action potential duration (APD75) at 3 µg/mL worked out at 26% and the percent prolongation of action potential duration (APD75) at 10 µg/mL is 31%.
For the molecule `Cn1c(N2CCN(CCc3ccc(Cl)cc3)CC2)cc(=O)n(C)c1=O` [Compound 91, 1,3-dimethyl-6-[4-(2-[4-chlorophenyl]-ethyl)piperazin-1-yl]-2,4(1H,3H)-pyrimidinedione.hydrochloride], in series [3], the change in vivo at 0.1 mg/kg came out at 3.5%, the change in vivo at 0.3 mg/kg turned out to be 6.5% and the change in vivo at 1 mg/kg came to 14.5%. In series [2], this molecule yielded a percent prolongation of action potential duration (APD75) at 1 µg/mL of 13% and a percent prolongation of action potential duration (APD75) at 3 µg/mL of 25%.
On to `CSc1ccc(OCCCN2CCN(c3cc(=O)n(C)c(=O)n3C)CC2)cc1` [Compound 98, 1,3-dimethyl-6-[4-(3-[4-methylthiophenoxy]propyl)piperazin-1-yl]-2,4 (1H,3H)-pyrimidinedione.hydrochloride], for which, in series [3], the change in vivo at 0.1 mg/kg came to 0%, the change in vivo at 0.3 mg/kg worked out at 0%, the change in vivo at 1 mg/kg amounted to 7.7% and the change in vivo at 3 mg/kg came to 15.4%. In series [2], this molecule showed a percent prolongation of action potential duration (APD75) at 1 µg/mL of 4%, a percent prolongation of action potential duration (APD75) at 3 µg/mL of 13% and a percent prolongation of action potential duration (APD75) at 10 µg/mL of 25%.
For the molecule `Cn1c(N2CCN(CCCOc3ccc(NS(C)(=O)=O)cc3Cl)CC2)cc(=O)n(C)c1=O` [Compound 111, 1,3-dimethyl-6-[4-(3-[2-chloro-4-methanesulfonamidophenoxy]propyl)piperazin-1-yl]-2,4(1H,3H)-pyrimidinedione.hydrochloride], in series [3], the change in vivo at 0.1 mg/kg was 0%, the change in vivo at 0.3 mg/kg amounted to 2.4%, the change in vivo at 1 mg/kg came to 8.6% and the change in vivo at 3 mg/kg was determined as 15.2%. In series [2], this molecule gave a percent prolongation of action potential duration (APD75) at 3 µg/mL of 19% and a percent prolongation of action potential duration (APD75) at 10 µg/mL of 36%.
With `CSc1ccc(OCCCN2CCN(c3cc(=O)n(C)c(=O)n3C)CC2)c(NS(C)(=O)=O)c1` [Compound 113, 1,3-dimethyl-6-[4-(3-[4-methylmercapto-2-methanesulfonamidophenoxy]propyl)piperazin-1-yl]-2,4(1H,3H)-pyrimidinedione.hydrochloride], in series [3], the change in vivo at 0.1 mg/kg was 0%, the change in vivo at 0.3 mg/kg came out at 0% and the change in vivo at 3 mg/kg worked out at 17.6%. For the same molecule, in series [2], the percent prolongation of action potential duration (APD75) at 1 µg/mL was determined as 2%, the percent prolongation of action potential duration (APD75) at 3 µg/mL amounted to 17% and the percent prolongation of action potential duration (APD75) at 10 µg/mL amounted to 26%.
Regarding `CCN(CCCOc1ccc(C(=O)c2ccccc2)cc1)CCNc1cc(=O)n(C)c(=O)n1C` [Compound 117, 1,3-dimethyl-6-[2-(N-ethyl-3-[4-benzoylphenoxy]propylamino)ethylamino]-2,4(1H,3H)-pyrimidinedione.oxalate], in series [3], the change in vivo at 0.1 mg/kg came out at 3.2%, the change in vivo at 0.3 mg/kg came out at 3.2%, the change in vivo at 1 mg/kg was 6.9% and the change in vivo at 3 mg/kg stood at 16.1%. In series [2], this molecule showed a percent prolongation of action potential duration (APD75) at 1 µg/mL of 17% and a percent prolongation of action potential duration (APD75) at 3 µg/mL of 23%.
Regarding `CC(C)NC[C@@H](O)c1ccc(NS(C)(=O)=O)cc1` [d-sotalol, reference compound], in series [3], the change in vivo at 0.1 mg/kg was found to be 1.7%, the change in vivo at 0.3 mg/kg came to 6.7%, the change in vivo at 1 mg/kg turned out to be 8.7% and the change in vivo at 3 mg/kg is 15.5%. In series [2] (Dose 0.3 (μg, ml)), this molecule displayed a percent prolongation of action potential duration (APD75) at 0.3 µg/mL of 0%. In addition, in series [2], the percent prolongation of action potential duration (APD75) at 1 µg/mL was 3%, the percent prolongation of action potential duration (APD75) at 3 µg/mL was found to be 7.4% and the percent prolongation of action potential duration (APD75) at 10 µg/mL was 15.8%.
